ChEMBL document CHEMBL3885881, “DrugMatrix”

Species: Rattus norvegicus
Assay: DrugMatrix - Regimen: Daily Repeat
Format: toxicity, organism-based, Sprague-Dawley
Parameters: regimen Daily Repeat, gender Male, age 6-8 weeks
Details: in vivo, po, route oral GAVAGE, […]; for ABSOLUTE BASOPHIL / ABSOLUTE EOSINOPHIL / ABSOLUTE LYMPHOCYTE / ABSOLUTE MONOCYTE / ABSOLUTE SEGMENTED NEUTROPHIL / BASOPHIL / EOSINOPHIL / ERYTHROCYTE COUNT / HEMATOCRIT / HEMOGLOBIN / LEUKOCYTE COUNT / LYMPHOCYTE / MEAN CORPUSCULAR HEMOGLOBIN / MEAN CORPUSCULAR HEMOGLOBIN CONCENTRATION / MEAN CORPUSCULAR VOLUME / MONOCYTE / NEUTROPHIL / NUCLEATED RED BLOOD CELLS / PLATELET COUNT: tissue Blood; for ALANINE AMINOTRANSFERASE / ALBUMIN / ALKALINE PHOSPHATASE / ASPARTATE AMINOTRANSFERASE / BLOOD UREA NITROGEN / CARBON DIOXIDE / CHLORIDE / CHOLESTEROL / CREATINE PHOSPHOKINASE / CREATININE / GLUCOSE / LACTATE DEHYDROGENASE / LIPASE / PHOSPHORUS / POTASSIUM / SODIUM / TOTAL BILIRUBIN / TOTAL PROTEIN / URIC ACID: tissue Plasma
[1] = 30 mg/kg, 120 h, dose level Low, time 5 day
[2] = 2500 mg/kg, 72 h, dose level High, time 3 day
[3] = 2500 mg/kg, 120 h, dose level High, time 5 day

## COC1=CC(=O)C[C@@H](C)[C@]12Oc1c(Cl)c(OC)cc(OC)c1C2=O [GRISEOFULVIN]
[1]
  ABSOLUTE BASOPHIL: 0 CELLS/uL
  ABSOLUTE EOSINOPHIL: 0 CELLS/uL
  ABSOLUTE LYMPHOCYTE: 12913.33 CELLS/uL
  ABSOLUTE MONOCYTE: 48.67 CELLS/uL
  ABSOLUTE SEGMENTED NEUTROPHIL: 1938 CELLS/uL
  BASOPHIL: 0%
  EOSINOPHIL: 0%
  ERYTHROCYTE COUNT: 5.4 x10E6/uL
  HEMATOCRIT: 33.57%
  HEMOGLOBIN: 12.93 G/DL
  LEUKOCYTE COUNT: 14.9 x10E3/uL
  LYMPHOCYTE: 86.67%
  MEAN CORPUSCULAR HEMOGLOBIN: 23.93 pg
  MEAN CORPUSCULAR HEMOGLOBIN CONCENTRATION: 38.5 G/DL
  MEAN CORPUSCULAR VOLUME: 62.1 fL
  MONOCYTE: 0.33%
  NEUTROPHIL: 13%
  NUCLEATED RED BLOOD CELLS: 0 /100WBC
  PLATELET COUNT: 1179 x10E3/uL
  ALANINE AMINOTRANSFERASE: 63.67 u/L
  ALBUMIN: 3.87 G/DL
  ALKALINE PHOSPHATASE: 399.67 u/L
  ASPARTATE AMINOTRANSFERASE: 90.33 u/L
  BLOOD UREA NITROGEN: 15.33 mg/dL
  CARBON DIOXIDE: 28.33 mmol/L
  CHLORIDE: 101.67 MEQ/L
  CHOLESTEROL: 66.33 mg/dL
  CREATINE PHOSPHOKINASE: 384.67 u/L
  CREATININE: 0.2 mg/dL
  GLUCOSE: 154 mg/dL
  LACTATE DEHYDROGENASE: 329.33 u/L
  LIPASE: 10 u/L
  PHOSPHORUS: 11.63 mg/dL
  POTASSIUM: 6.32 MEQ/L
  SODIUM: 143 MEQ/L
  TOTAL BILIRUBIN: 0.2 mg/dL
  TOTAL PROTEIN: 5.5 G/DL
  URIC ACID: 1.43 mg/dL
[2]
  ABSOLUTE BASOPHIL: 0 CELLS/uL
  ABSOLUTE EOSINOPHIL: 109.33 CELLS/uL
  ABSOLUTE LYMPHOCYTE: 15660.67 CELLS/uL
  ABSOLUTE MONOCYTE: 63 CELLS/uL
  ABSOLUTE SEGMENTED NEUTROPHIL: 2167 CELLS/uL
  BASOPHIL: 0%
  EOSINOPHIL: 0.67%
  ERYTHROCYTE COUNT: 5.22 x10E6/uL
  HEMATOCRIT: 32.37%
  HEMOGLOBIN: 12.83 G/DL
  LEUKOCYTE COUNT: 18 x10E3/uL
  LYMPHOCYTE: 87%
  MEAN CORPUSCULAR HEMOGLOBIN: 24.6 pg
  MEAN CORPUSCULAR HEMOGLOBIN CONCENTRATION: 39.67 G/DL
  MEAN CORPUSCULAR VOLUME: 62.07 fL
  MONOCYTE: 0.33%
  NEUTROPHIL: 12%
  NUCLEATED RED BLOOD CELLS: 0 /100WBC
  PLATELET COUNT: 1162 x10E3/uL
  ALANINE AMINOTRANSFERASE: 57 u/L
  ALBUMIN: 3.87 G/DL
  ALKALINE PHOSPHATASE: 293.67 u/L
  ASPARTATE AMINOTRANSFERASE: 75.67 u/L
  BLOOD UREA NITROGEN: 14.33 mg/dL
  CARBON DIOXIDE: 33.67 mmol/L
  CHLORIDE: 98.33 MEQ/L
  CHOLESTEROL: 107.67 mg/dL
  CREATINE PHOSPHOKINASE: 199 u/L
  CREATININE: 0.17 mg/dL
  GLUCOSE: 144 mg/dL
  LACTATE DEHYDROGENASE: 120 u/L
  LIPASE: 11.67 u/L
  PHOSPHORUS: 12.17 mg/dL
  POTASSIUM: 6.74 MEQ/L
  SODIUM: 142.47 MEQ/L
  TOTAL BILIRUBIN: 0.2 mg/dL
  TOTAL PROTEIN: 5.83 G/DL
  URIC ACID: 1.47 mg/dL
[3]
  ABSOLUTE BASOPHIL: 0 CELLS/uL
  ABSOLUTE EOSINOPHIL: 34 CELLS/uL
  ABSOLUTE LYMPHOCYTE: 11701.67 CELLS/uL
  ABSOLUTE MONOCYTE: 201.67 CELLS/uL
  ABSOLUTE SEGMENTED NEUTROPHIL: 562.67 CELLS/uL
  BASOPHIL: 0%
  EOSINOPHIL: 0.33%
  ERYTHROCYTE COUNT: 5.46 x10E6/uL
  HEMATOCRIT: 34.03%
  HEMOGLOBIN: 13.2 G/DL
  LEUKOCYTE COUNT: 12.5 x10E3/uL
  LYMPHOCYTE: 93.67%
  MEAN CORPUSCULAR HEMOGLOBIN: 24.23 pg
  MEAN CORPUSCULAR HEMOGLOBIN CONCENTRATION: 38.8 G/DL
  MEAN CORPUSCULAR VOLUME: 62.4 fL
  MONOCYTE: 1.67%
  NEUTROPHIL: 4.33%
  NUCLEATED RED BLOOD CELLS: 0.33 /100WBC
  PLATELET COUNT: 1293.67 x10E3/uL
  ALANINE AMINOTRANSFERASE: 49.67 u/L
  ALBUMIN: 4.17 G/DL
  ALKALINE PHOSPHATASE: 316.33 u/L
  ASPARTATE AMINOTRANSFERASE: 89.33 u/L
  BLOOD UREA NITROGEN: 17.67 mg/dL
  CARBON DIOXIDE: 24 mmol/L
  CHLORIDE: 109 MEQ/L
  CHOLESTEROL: 95.67 mg/dL
  CREATINE PHOSPHOKINASE: 362.67 u/L
  CREATININE: 0.28 mg/dL
  GLUCOSE: 152.67 mg/dL
  LACTATE DEHYDROGENASE: 489 u/L
  LIPASE: 11.33 u/L
  PHOSPHORUS: 11.23 mg/dL
  POTASSIUM: 6.51 MEQ/L
  SODIUM: 150.77 MEQ/L
  TOTAL BILIRUBIN: 0.13 mg/dL
  TOTAL PROTEIN: 6.2 G/DL
  URIC ACID: 1.83 mg/dL
